Data as given in patent US20050148627A1, “Benzopyran compounds for use in the treatment and prevention of inflammation related conditions” (priority 2003, published 2005).

Row | SMILES | melting point
1 | CC(F)(F)c1ccc2c(c1)C=C(C(=O)O)C(C(F)(F)F)O2 (stereo not shown) [Example 34d, 6-(1,1-difluoroethyl)-2-(trifluoromethyl)-2H-chromene-3-carboxylic acid] | 156 to 158 °C (dec.)
2 | CCCc1ccc(Oc2ccc3c(c2)OC(C(F)(F)F)C(C(=O)O)=C3)cc1 (stereo not shown) [Example 713, 7-(4-Propylphenoxy)-2-(trifluoromethyl)-2H-chromene-3-carboxylic acid] | 143.5 to 146.5 °C
3 | CCc1cnc(Oc2cc3c(cc2Cl)C=C(C(=O)O)C(C(F)(F)F)O3)nc1 (stereo not shown) [Example 864, 6-Chloro-7-[(5-ethylpyrimidin-2-yl)oxy]-2-(trifluoromethyl)-2H-chromene-3-carboxylic acid] | 96.5 to 98 °C
4 | O=C(O)C1=Cc2c(ccc(Cl)c2-c2ccco2)OC1C(F)(F)F (stereo not shown) [Example 867, 6-Chloro-5-(2-furyl)-2-(trifluoromethyl)-2H-chromene-3-carboxylic acid] | 191 to 193 °C
5 | O=C(O)C1=Cc2c(ccc(Cl)c2-c2ccsc2)OC1C(F)(F)F (stereo not shown) [Example 868, 6-Chloro-5-thien-3-yl-2-(trifluoromethyl)-2H-chromene-3-carboxylic acid] | 211 to 213.5 °C
6 | Cc1ccc(-c2c(Cl)ccc3c2C=C(C(=O)O)C(C(F)(F)F)O3)cc1 (stereo not shown) [Example 869, 6-Chloro-5-(4-methylphenyl)-2-(trifluoromethyl)-2H-chromene-3-carboxylic acid] | 218 to 220 °C
7 | Cc1cccc(-c2c(Cl)ccc3c2C=C(C(=O)O)C(C(F)(F)F)O3)c1 (stereo not shown) [Example 870, 6-Chloro-5-(3-methylphenyl)-2-(trifluoromethyl)-2H-chromene-3-carboxylic acid] | 222.5 to 224 °C
8 | CC(C)c1cccc(-c2c(Cl)ccc3c2C=C(C(=O)O)C(C(F)(F)F)O3)c1 (stereo not shown) [Example 871, 6-Chloro-5-(3-isopropylphenyl)-2-(trifluoromethyl)-2H-chromene-3-carboxylic acid] | 184 to 186.5 °C
9 | O=C(O)C1=Cc2c(ccc(Cl)c2-c2ccccc2)OC1C(F)(F)F (stereo not shown) [Example 872, 6-Chloro-5-phenyl-2-(trifluoromethyl)-2H-chromene-3-carboxylic acid] | 229 to 231 °C
10 | CCc1c(Cl)ccc2c1C=C(C(=O)O)C(C(F)(F)F)O2 (stereo not shown) [Example 873, 6-Chloro-5-ethyl-2-(trifluoromethyl)-2H-chromene-3-carboxylic acid] | 171.5 to 172.5 °C
11 | Nc1c(Cl)ccc2c1C=C(C(=O)O)C(C(F)(F)F)O2 (stereo not shown) [Example 876, 5-Amino-6-chloro-2-(trifluoromethyl)-2H-chromene-3-carboxylic acid] | 208.5 to 210 °C
12 | O=C(O)C1=Cc2cc3occ(-c4ccc(Br)cc4)c3cc2OC1C(F)(F)F (stereo not shown) [Example 921, 3-(4-bromophenyl)-6-(trifluoromethyl)-6H-furo[2,3-g]chromene-7-carboxylic acid] | > 250 °C
13 | O=C(O)C1=Cc2c(ccc3occ(-c4ccc(Br)cc4)c23)OC1C(F)(F)F (stereo not shown) [Example 922, 1-Para-bromophenyl-7-(trifluoromethyl)-7H-furo[3,2-f]chromene-8-carboxylic acid] | > 250 °C
